pIC50: −log10 of the molar value.
System: BE(2)-C cell
Assay: Cell proliferation assay (MTS) in BE(2)-C cells
Type: cell-based
Conditions: Homo sapiens, inhibition of BE(2)-C cell proliferation, 48 h
Procedure, shortened: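 Proliferation read-out was MTS absorbance at 490 nm, with 650 nm as reference, after a 2 h MTS incubation, giving IC50 values. Before reading, BE(2)-C cells plated at 3000 per well were exposed to nine compound concentrations from 10000 down to 1.5 nM for 48 h at 37 °C, 5% CO2.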

| Structure (SMILES) | pIC50 |
| --- | --- |
| CCN1CCC2(CC1)CN(Cc1ccc(Nc3ncc(F)c(-c4cc(F)c5nc6n(c5c4)[C@H](C(F)F)CC6)n3)nc1)C2 [Example 44, (S)-4-(1-(difluoromethyl)-5-fluoro-2,3-dihydro-1H-benzo[d]pyrrolo[1,2-a]imidazol-7-yl)-N-(5-((7-ethyl-2,7-diazaspiro[3.5]nonan-2-yl)methyl)pyridin-2-yl)-5-fluoropyrimidin-2-amine] | 7.00 to 8.00 |
| Fc1cnc(Nc2ccc(CN3CC4(CNC4)C3)cn2)nc1-c1cc(F)c2nc3n(c2c1)[C@H](C(F)F)CC3 [Example 45, (S)-N-(5-((2,6-diazaspiro[3.3]heptan-2-yl)methyl)pyridin-2-yl)-4-(1-(difluoromethyl)-5-fluoro-2,3-dihydro-1H-benzo[d]pyrrolo[1,2-a]imidazol-7-yl)-5-fluoropyrimidin-2-amine] | < 6.00 |
| CN1CC2(C1)CN(Cc1ccc(Nc3ncc(F)c(-c4cc(F)c5nc6n(c5c4)[C@H](C(F)F)CC6)n3)nc1)C2 [Example 46, (S)-4-(1-(difluoromethyl)-5-fluoro-2,3-dihydro-1H-benzo[d]pyrrolo[1,2-a]imidazol-7-yl)-5-fluoro-N-(5-((6-methyl-2,6-diazaspiro[3.3]heptan-2-yl)methyl)pyridin-2-yl)pyrimidin-2-amine] | 7.00 to 8.00 |
| CCN1CC2(C1)CN(Cc1ccc(Nc3ncc(F)c(-c4cc(F)c5nc6n(c5c4)[C@H](C(F)F)CC6)n3)nc1)C2 [Example 47, (S)-4-(1-(difluoromethyl)-5-fluoro-2,3-dihydro-1H-benzo[d]pyrrolo[1,2-a]imidazol-7-yl)-N-(5-((6-ethyl-2,6-diazaspiro[3.3]heptan-2-yl)methyl)pyridin-2-yl)-5-fluoropyrimidin-2-amine] | 7.00 to 8.00 |
| Fc1cnc(Nc2ccc(CN3CC4CNCC4C3)cn2)nc1-c1cc(F)c2nc3n(c2c1)[C@H](C(F)F)CC3 (stereo partly drawn) [Example 48, 4-((S)-1-(difluoromethyl)-5-fluoro-2,3-dihydro-1H-benzo[d]pyrrolo[1,2-a]imidazol-7-yl)-5-fluoro-N-(5-((hexahydropyrrolo[3,4-c]pyrrol-2(1H)-yl)methyl)pyridin-2-yl)pyrimidin-2-amine] | < 7.00 |
| CN1CC2CN(Cc3ccc(Nc4ncc(F)c(-c5cc(F)c6nc7n(c6c5)[C@H](C(F)F)CC7)n4)nc3)CC2C1 (stereo partly drawn) [Example 49, 4-((S)-1-(difluoromethyl)-5-fluoro-2,3-dihydro-1H-benzo[d]pyrrolo[1,2-a]imidazol-7-yl)-5-fluoro-N-(5-((5-methylhexahydropyrrolo[3,4-c]pyrrol-2(1H)-yl)methyl)pyridin-2-yl)pyrimidin-2-amine] | 7.00 to 8.00 |
| CCN1CC2CN(Cc3ccc(Nc4ncc(F)c(-c5cc(F)c6nc7n(c6c5)[C@H](C(F)F)CC7)n4)nc3)CC2C1 (stereo partly drawn) [Example 50, 4-((S)-1-(difluoromethyl)-5-fluoro-2,3-dihydro-1H-benzo[d]pyrrolo[1,2-a]imidazol-7-yl)-N-(5-((5-ethylhexahydropyrrolo[3,4-c]pyrrol-2(1H)-yl)methyl)pyridin-2-yl)-5-fluoropyrimidin-2-amine] | 7.00 to 8.00 |
| Fc1cnc(Nc2ccc(CN3CCC4(CCNCC4)CC3)cn2)nc1-c1cc(F)c2nc3n(c2c1)[C@H](C(F)F)CC3 [Example 51, (S)-N-(5-((3,9-diazaspiro[5.5]undecan-3-yl)methyl)pyridin-2-yl)-4-(1-(difluoromethyl)-5-fluoro-2,3-dihydro-1H-benzo[d]pyrrolo[1,2-a]imidazol-7-yl)-5-fluoropyrimidin-2-amine] | < 7.00 |
| CN1CCC2(CC1)CCN(Cc1ccc(Nc3ncc(F)c(-c4cc(F)c5nc6n(c5c4)[C@H](C(F)F)CC6)n3)nc1)CC2 [Example 52, (S)-4-(1-(difluoromethyl)-5-fluoro-2,3-dihydro-1H-benzo[d]pyrrolo[1,2-a]imidazol-7-yl)-5-fluoro-N-(5-((9-methyl-3,9-diazaspiro[5.5]undecan-3-yl)methyl)pyridin-2-yl)pyrimidin-2-amine] | < 7.00 |
| CCN1CCC2(CC1)CCN(Cc1ccc(Nc3ncc(F)c(-c4cc(F)c5nc6n(c5c4)[C@H](C(F)F)CC6)n3)nc1)CC2 [Example 53, (S)-4-(1-(difluoromethyl)-5-fluoro-2,3-dihydro-1H-benzo[d]pyrrolo[1,2-a]imidazol-7-yl)-N-(5-((9-ethyl-3,9-diazaspiro[5.5]undecan-3-yl)methyl)pyridin-2-yl)-5-fluoropyrimidin-2-amine] | < 7.00 |
| Fc1cnc(Nc2ccc(CN3C4CCC3CNC4)cn2)nc1-c1cc(F)c2nc3n(c2c1)[C@H](C(F)F)CC3 [Example 54, N-(5-((3,8-diazabicyclo[3.2.1]octan-8-yl)methyl)pyridin-2-yl)-4-((S)-1-(difluoromethyl)-5-fluoro-2,3-dihydro-1H-benzo[d]pyrrolo[1,2-a]imidazol-7-yl)-5-fluoropyrimidin-2-amine] | < 7.00 |
| CN1CC2CCC(C1)N2Cc1ccc(Nc2ncc(F)c(-c3cc(F)c4nc5n(c4c3)[C@H](C(F)F)CC5)n2)nc1 [Example 55, 4-((S)-1-(difluoromethyl)-5-fluoro-2,3-dihydro-1H-benzo[d]pyrrolo[1,2-a]imidazol-7-yl)-5-fluoro-N-(5-((3-methyl-3,8-diazabicyclo[3.2.1]octan-8-yl)methyl)pyridin-2-yl)pyrimidin-2-amine] | 7.00 to 8.00 |
| CCN1CC2CCC(C1)N2Cc1ccc(Nc2ncc(F)c(-c3cc(F)c4nc5n(c4c3)[C@H](C(F)F)CC5)n2)nc1 [Example 56, 4-((S)-1-(difluoromethyl)-5-fluoro-2,3-dihydro-1H-benzo[d]pyrrolo[1,2-a]imidazol-7-yl)-N-(5-((3-ethyl-3,8-diazabicyclo[3.2.1]octan-8-yl)methyl)pyridin-2-yl)-5-fluoropyrimidin-2-amine] | 7.00 to 8.00 |
| Fc1cnc(Nc2ccc(CN3CC4CCC(C3)N4)cn2)nc1-c1cc(F)c2nc3n(c2c1)[C@H](C(F)F)CC3 [Example 57, N-(5-((3,8-diazabicyclo[3.2.1]octan-3-yl)methyl)pyridin-2-yl)-4-((S)-1-(difluoromethyl)-5-fluoro-2,3-dihydro-1H-benzo[d]pyrrolo[1,2-a]imidazol-7-yl)-5-fluoropyrimidin-2-amine] | < 7.00 |
| CN1C2CCC1CN(Cc1ccc(Nc3ncc(F)c(-c4cc(F)c5nc6n(c5c4)[C@H](C(F)F)CC6)n3)nc1)C2 [Example 58, 4-((S)-1-(difluoromethyl)-5-fluoro-2,3-dihydro-1H-benzo[d]pyrrolo[1,2-a]imidazol-7-yl)-5-fluoro-N-(5-((8-methyl-3,8-diazabicyclo[3.2.1]octan-3-yl)methyl)pyridin-2-yl)pyrimidin-2-amine] | 7.00 to 8.00 |
| CCN1C2CCC1CN(Cc1ccc(Nc3ncc(F)c(-c4cc(F)c5nc6n(c5c4)[C@H](C(F)F)CC6)n3)nc1)C2 [Example 59, 4-((S)-1-(difluoromethyl)-5-fluoro-2,3-dihydro-1H-benzo[d]pyrrolo[1,2-a]imidazol-7-yl)-N-(5-((8-ethyl-3,8-diazabicyclo[3.2.1]octan-3-yl)methyl)pyridin-2-yl)-5-fluoropyrimidin-2-amine] | 7.00 to 8.00 |
| Fc1cnc(Nc2ccc(CN3CCN4CCC[C@@H]4C3)cn2)nc1-c1cc(F)c2nc3n(c2c1)[C@H](C(F)(F)F)CC3 [Example 60, 5-fluoro-4-((S)-5-fluoro-1-(trifluoromethyl)-2,3-dihydro-1H-benzo[d]pyrrolo[1,2-a]imidazol-7-yl)-N-(5-(((R)-hexahydropyrrolo[1,2-a]pyrazin-2(1H)-yl)methyl)pyridin-2-yl)pyrimidin-2-amine] | 7.00 to 8.00 |
